US20150366879A1, “DIFLUPREDNATE EMULSION COMPOSITION CONTAINING ANTIMICROBIAL METAL” (SENJU PHARMACEUTICAL CO., LTD., priority 2013, published 2015)
Structures can show the parent of a compound that is named as a salt. Where two headings read alike, the source gives them in different places.

Tested on: Staphylococcus aureus, Escherichia coli and Pseudomonas aeruginosa
Test: preservative efficacy test, judgment of immediate effectiveness over all microbial species
Assay type: cell-based
Protocol: As the test microorganism, Staphylococcus aureus (ATCC 6538), Escherichia coli (ATCC 8739) and Pseudomonas aeruginosa (ATCC 9027) were used. Each test microorganism was inoculated on the surface of a slant agar medium and precultured. The preculture was conducted using a soybean casein digest agar medium at 30-35° C. for 18-24 hr.
An emulsion composition to be subjected to the test was used as a sample, and the sample was dispensed to 5 sterilized stoppered test tubes by 10 mL each. A precultured test microorganism was added to the sample such that the cell count was 10^5-10^6 cells/mL to give a mixed sample. The test microorganism was singly added to the sample. The mixed sample was preserved at 20-25° C. with protection from light.
At 6 hr and 24 hr from the start of the preservation, 1 mL of each mixed sample was taken, and the solution was diluted with saline (9 mL). Similar dilution was performed 2-3 times and each diluted solution (1 mL) was dispensed to a sterilized petri dish, and then, 0.1 (w/v) % lecithin-0.7 (w/v) % polysorbate 80-added soybean casein digest agar medium was added to the bacteria, and the mixture was cultured at 30-35° C. for about 3 days. The colony forming units were measured, and the viable cell count per 1 mL of the mixed sample was calculated.
When the viable cell counts of all microbial species decreased by 3 log or more after 24 hr from the start of the test, an immediate effectiveness of preservative efficacy was judged to be present and the judgment was compatible. When further immediate effectiveness of preservative efficacy is demanded, it was judged to be present when the viable cell counts of all microbial species decreased by 3 log or more after 24 hr from the start of the test and the viable cell counts of all microbial species decreased by 2 log or more after 6 hr from the start of the test, and the judgment was compatible.

[1] = added as preservative to difluprednate emulsion composition

In the case of `O=S(=O)([O-])[O-].[Cu+2]` [copper sulfate], the “concentration at which excellent immediate effectiveness of preservative efficacy was obtained” value is reported as “not less than 0.0005 (w/v) %”.
In the case of `Oc1cccc2cccnc12` [oxyquinoline sulfate], the “immediate effectiveness of preservative efficacy” value is reported as “not found”.
In the case of `O=[N+]([O-])[O-].[Ag+]` [silver nitrate], the “concentration at which further (excellent) immediate effectiveness was found” value (as silver ion, 6 hr and 24 hr criteria, in difluprednate emulsion) is reported as “not less than 0.005 (w/v) %” and the “concentration at which immediate effectiveness of preservative efficacy was found” value (as silver ion, 24 hr criterion, in difluprednate emulsion) is reported as “not less than 0.0005 (w/v) %”.
In the case of `C/C=C/C=C/C(=O)O` [sorbic acid], the “immediate effectiveness of preservative efficacy” value [1] is reported as “not found”.
For benzalkonium chloride, the “immediate effectiveness of preservative efficacy” value [1] was “not found”.
